The values below come from ChEMBL document CHEMBL1124261 (J Med Chem, 1988).

For test [1], the system named is L1210. Kind of test: Mean change in weight of mice infected with L1210 leukemia after 7 days after an intraperitoneal dose of 4 mg/kg. It counts as functional, Mus musculus.
For test [2], the system named is L1210. Kind of test: Range for the survival of mice infected with L1210 leukemia after an intraperitoneal dose of 4 mg/kg for 9 days. It counts as functional, Mus musculus.
Test [3] has as its system L1210. In words: Mean survival of mice infected with L1210 leukemia after an intraperitoneal dose of 4 mg/kg for 9 days. It counts as functional, Mus musculus.
Test [4] has as its system L1210. Kind of test: Increase in life span of mice infected with L1210 leukemia after an intraperitoneal dose of 4 mg/kg for 9 days. It counts as functional. Particulars: Mus musculus, L1210, ip, 216 h.
For test [5], the system named is L1210. In words: Increase in life span of mice infected with L1210 leukemia after an intraperitoneal dose of 6.25 mg/kg for 9 days. It counts as functional. The following applies: Mus musculus, L1210, ip, 216 h.
Test [6] deals with L1210. Kind of test: Range for the survival of mice infected with L1210 leukemia after an intraperitoneal dose of 50 mg/kg for 9 days. The format is functional, Mus musculus.
Test [7] concerns L1210. In words: Range for the survival of mice infected with L1210 leukemia after an intraperitoneal dose of 12.5 mg/kg for 9 days. It counts as functional, Mus musculus.
Test [8] deals with L1210 ( R81). In words: Tested for cell-growth inhibition against mouse leukemic L1210/R81 cells. It counts as functional, cell-based.
The subject of test [9] is L1210. In words: Mean survival of mice infected with L1210 leukemia after an intraperitoneal dose of 12.5 mg/kg for 9 days. It counts as functional, Mus musculus.
For test [10], the system named is L1210. Kind of test: Increase in life span of mice infected with L1210 leukemia after an intraperitoneal dose of 12.5 mg/kg for 9 days. The following applies: Mus musculus, L1210, ip, 216 h. It counts as functional.
Test [11] relates to L1210. Kind of test: Mean change in weight of mice infected with L1210 leukemia after 7 days after an intraperitoneal dose of 25 mg/kg. It counts as functional, Mus musculus.
Test [12] has as its target T1, Dihydrofolate reductase (Mus musculus, UniProt P00375).
T1 sequence (P00375 whole entry): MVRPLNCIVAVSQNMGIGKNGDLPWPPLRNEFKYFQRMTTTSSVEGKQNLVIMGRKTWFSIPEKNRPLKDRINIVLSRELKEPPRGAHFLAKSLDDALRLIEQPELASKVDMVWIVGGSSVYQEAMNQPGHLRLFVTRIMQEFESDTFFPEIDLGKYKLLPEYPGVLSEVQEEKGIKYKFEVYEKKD
In words: biochemical.
Description: Tested for inhibition against purified Dihydrofolate reductase from L1210 murine leukemia cells

The subject of test [13] is L1210. In words: Tested for cell-growth inhibition against mouse leukemic L1210 cells. The format is functional, cell-based.
The test system of test [14] is L1210. Kind of test: Increase in life span of mice infected with L1210 leukemia after an intraperitoneal dose of 25 mg/kg for 9 days. The format is functional. Particulars: Mus musculus, L1210, ip, 216 h.
Test [15] has as its system L1210. In words: Mean survival of mice infected with L1210 leukemia after an intraperitoneal dose of 50 mg/kg for 9 days. It counts as functional, Mus musculus.
The species entered for test [16] is Mus musculus. Kind of test: (§1) Tested for inhibition against purified Folyl-polyglutamate synthase from mouse liver. Particulars: concentration not given here.
Test [17] is described as follows: Inhibitory constant against purified Folyl-polyglutamate synthase from mouse liver. The format is functional.
Test [18] has as its system L1210. Kind of test: Increase in life span of mice infected with L1210 leukemia after an intraperitoneal dose of 50 mg/kg for 9 days. The format is functional. Particulars: Mus musculus, L1210, ip, 216 h.
For test [19], the system named is L1210. In words: Mean change in weight of mice infected with L1210 leukemia after 7 days after an intraperitoneal dose of 12.5 mg/kg. It counts as functional, Mus musculus.
For test [20], the system named is L1210. In words: Range for the survival of mice infected with L1210 leukemia after an intraperitoneal dose of 25 mg/kg for 9 days. It counts as functional, Mus musculus.
The subject of test [21] is L1210. In words: Mean change in weight of mice infected with L1210 leukemia after 7 days after an intraperitoneal dose of 50 mg/kg. The format is functional, Mus musculus.
For test [22], the system named is L1210. Kind of test: Mean survival of mice infected with L1210 leukemia after an intraperitoneal dose of 6.25 mg/kg for 9 days. It counts as functional, Mus musculus.
Test [23] relates to L1210. In words: Range for the survival of mice infected with L1210 leukemia after an intraperitoneal dose of 6.25 mg/kg for 9 days. The format is functional, Mus musculus.
The subject of test [24] is L1210. In words: Mean change in weight of mice infected with L1210 leukemia after 7 days after an intraperitoneal dose of 6.25 mg/kg. It counts as functional, Mus musculus.
Test [25] deals with L1210. Kind of test: Mean survival of mice infected with L1210 leukemia after an intraperitoneal dose of 25 mg/kg for 9 days. It counts as functional, Mus musculus.
For test [26], the species on record is Mus musculus. The description is as §1. The following applies: dose or concentration not given here. It counts as functional.
Test [27] concerns L1210. In words: Range for the survival of mice infected with L1210 leukemia after an intraperitoneal dose of 50 mg/kg for 9 days; Range is 8-16.
Test [28] concerns L1210. In words: Range for the survival of mice infected with L1210 leukemia after an intraperitoneal dose of 6.25 mg/kg for 9 days; Range is 10-13. The format is functional, Mus musculus.
For test [29], the system named is L1210. In words: Range for the survival of mice infected with L1210 leukemia after an intraperitoneal dose of 12.5 mg/kg for 9 days; Range is 10-15. The format is functional, Mus musculus.
Test [30] relates to L1210. In words: Mean change in weight of mice infected with L1210 leukemia after 7 days after an intraperitoneal dose of 40 mg/kg. It counts as functional, Mus musculus.
For test [31], the system named is L1210. Kind of test: Mean change in weight of mice infected with L1210 leukemia after 7 days after an intraperitoneal dose of 60 mg/kg. The format is functional, Mus musculus.
Test [32] relates to L1210. Kind of test: Increase in life span of mice infected with L1210 leukemia after an intraperitoneal dose of 40 mg/kg for 9 days. Particulars: Mus musculus, L1210, ip, 216 h. It counts as functional.
Test [33] deals with L1210. In words: Mean change in weight of mice infected with L1210 leukemia after 7 days after an intraperitoneal dose of 80 mg/kg. It counts as functional, Mus musculus.
Test [34] deals with L1210. In words: Range for the survival of mice infected with L1210 leukemia after an intraperitoneal dose of 60 mg/kg for 9 days; Range is 9-24. It counts as functional, Mus musculus.
In test [35] the test system is L1210. Kind of test: Range for the survival of mice infected with L1210 leukemia after an intraperitoneal dose of 80 mg/kg for 9 days; Range is 9-11. The format is functional, Mus musculus.
Test [36] deals with CCRF-CEM. In words: Tested for cell-growth inhibition against human leukemic lymphoblast CEM cells. It counts as functional, cell-based.
For test [37], the system named is L1210. In words: Increase in life span of mice infected with L1210 leukemia after an intraperitoneal dose of 60 mg/kg for 9 days. The format is functional. Particulars: Mus musculus, L1210, ip, 216 h.
Test [38] has as its system L1210. In words: Range for the survival of mice infected with L1210 leukemia after an intraperitoneal dose of 20 mg/kg for 9 days; Range is 19-22. It counts as functional, Mus musculus.
Test [39] concerns L1210. Kind of test: Range for the survival of mice infected with L1210 leukemia after an intraperitoneal dose of 40 mg/kg for 9 days; Range is 12-25. It counts as functional, Mus musculus.
Test [40] has as its system L1210. In words: Mean survival of mice infected with L1210 leukemia after an intraperitoneal dose of 80 mg/kg for 9 days. The format is functional, Mus musculus.
Test [41] deals with L1210. In words: Mean survival of mice infected with L1210 leukemia after an intraperitoneal dose of 20 mg/kg for 9 days. It counts as functional, Mus musculus.
Test [42] concerns L1210. Kind of test: Increase in life span of mice infected with L1210 leukemia after an intraperitoneal dose of 20 mg/kg for 9 days. The format is functional. The following applies: Mus musculus, L1210, ip, 216 h.
The subject of test [43] is L1210. Kind of test: Mean change in weight of mice infected with L1210 leukemia after 7 days after an intraperitoneal dose of 20 mg/kg. It counts as functional, Mus musculus.
In test [44] the test system is L1210. Kind of test: Mean survival of mice infected with L1210 leukemia after an intraperitoneal dose of 40 mg/kg for 9 days. The format is functional, Mus musculus.
For test [45], the system named is L1210. Kind of test: Mean survival of mice infected with L1210 leukemia after an intraperitoneal dose of 60 mg/kg for 9 days. The format is functional, Mus musculus.
The test system of test [46] is L1210. In words: Increase in life span of mice infected with L1210 leukemia after an intraperitoneal dose of 80 mg/kg for 9 days. It counts as functional. The following applies: Mus musculus, L1210, ip, 216 h.
The subject of test [47] is CCRF-CEM. Kind of test: Tested for cell-growth inhibition against human leukemic lymphoblast CEM/MTX cells. It counts as functional, cell-based.

As for `CN(Cc1cnc2nc(N)nc(N)c2n1)c1ccc(C(=O)N[C@@H](CCC(=O)O)C(=O)O)cc1` [METHOTREXATE], the Weight change in [1] is 8%. This molecule returned a Range in test [2] of 23 days. This molecule also returned a Survival in test [3] of 17.2 days. In [4], the ILS at 4 mg/kg came out at 95%.
On to `Nc1nc(N)c2nc(CNc3ccc(C(=O)NC(CCCCCCCCCCC(=O)O)C(=O)O)cc3)cnc2n1` (stereo not drawn), for which the increase in lifespan (ILS) at 6.25 mg/kg in test [5] is 45%. Further, the Range amounted to 15 days in test [6], 16 days in test [7], 16 days in test [20] and 13 days in test [23]. Besides, the results for the IC50 in test [8], in test [12] and in test [13] were 215 µM, 67 nM and 1.1 nM, respectively. The Survival in test [9] is 13.8 days; in test [15], 10.4 days; in test [22], 12.8 days; in [25], 9.6 days. This molecule also registered an increase in life span (ILS) at 12.5 mg/kg in test [10] of 57%. In addition, the Weight change in [11] was -3%; in test [19], 10%; in test [21], 4%; in test [24], 10%. In [14], this molecule yielded an ILS at 25 mg/kg of 11%. For the same molecule, the inhibition in test [16] stood at 74%. Besides, the Ki in [17] amounted to 62 µM. The ILS at 50 mg/kg in test [18] worked out at 18%.
With `Nc1nc(N)c2nc(CNc3ccc(C(=O)NC(CCCCCCC(=O)O)C(=O)O)cc3)cnc2n1` (stereo not drawn), the increase in lifespan (ILS) at 6.25 mg/kg in [5] was 36%. Moreover, the IC50 in test [8] was more than 218 µM; in test [12], 54 nM; in test [13], 20 nM. Further, the Survival was 14.2 days in test [9], 10.6 days in test [15], 12 days in test [22] and 11.8 days in [25]. In test [10], the increase in life span (ILS) at 12.5 mg/kg came to 61%. Further, the Weight change in test [11] amounted to 5%; in test [19] it was 9%; in test [21], 7%; in [24], 9%. The same molecule had an inhibition in test [26] of 50%. In addition, the Range in [27] amounted to 8 days; in test [20], 16 days; in [28] it was 10 days; in test [29], 10 days. This molecule also registered an increase in lifespan (ILS) at 25 mg/kg in test [14] of 34%. Further, affinity in test [17] was put at a Ki of 170 µM. The molecule also showed an ILS at 50 mg/kg in test [18] of 20%.
With `CN(Cc1cnc2nc(N)nc(N)c2n1)c1ccc(C(=O)NC(CCCCCCCCCCC(=O)O)C(=O)O)cc1` (stereo not drawn), the Weight change is given as 3% in test [30], 2% in [31], 4% in [33] and 3% in test [43]. The concentration for half-maximal inhibition (IC50) in test [8] worked out at 56 µM; in [12] it was 26 nM; in test [36] it was 640 nM; in test [13], 26 nM; in [47], 10 µM. In [32], this molecule returned an ILS at 40 mg/kg of 116%. Also, the Range amounted to 9 days in test [34], 9 days in test [35], 19 days in test [38] and 12 days in [39]. Moreover, the increase in lifespan (ILS) at 60 mg/kg in [37] turned out to be 97%. Besides, the Survival in test [40] was 10 days; in [41] it was 20.4 days; in test [44], 19 days; in test [45], 17.3 days. The inhibition in [16] was 59%. Besides, the increase in lifespan (ILS) at 20 mg/kg in [42] was determined as 137%. The ILS at 80 mg/kg in test [46] was determined as 14%.

The ILS is the gain in survival time of treated over control animals, in per cent. Read a high ILS as a large benefit in survival. What is called IC50 is the point on the concentration scale where inhibition reaches its midpoint. Low readings indicate inhibition by little substance, high ones a need for much substance. A word on the inhibition: it is the drop in the measured response relative to a control, in per cent. The term Ki denotes a dissociation constant, usually derived from enzyme kinetics or from competition with a known ligand. The low end stands for tighter binding, the high end for weaker binding.
